Values of other authors in US11129554B2, “Sweat monitoring and control of drug delivery” (University Of Cincinnati, priority 2014, dated 2021).

tested on: beta-adrenoceptors; settings: not given

| Compound | beta-blocking activity |
| --- | --- |
| CC(C)NC[C@H](O)COc1cccc2ccccc12 [1-Propranolol] | has beta-adrenoceptors blocking action |
| COc1ccccc1OCCNCC(O)COc1cccc2[nH]c3ccccc3c12 (stereo not drawn) [Carvedilol S(−) isomer, Carvedilol] | nonselective beta-adrenoceptor blocker |
| CC(CCc1ccccc1)NCC(O)c1ccc(O)c(C(N)=O)c1 [Labetalol (R, R) isomer, Labetalol] | potent beta-blocker |
| CC(CCc1ccccc1)NCC(O)c1ccc(O)c(C(N)=O)c1 [Labetalol (R, S) isomer, Labetalol] | relatively inactive |
| CC(CCc1ccccc1)NCC(O)c1ccc(O)c(C(N)=O)c1 [Labetalol (S, S) isomer, Labetalol] | relatively inactive |
| OC(CNCC(O)C1CCc2cc(F)ccc2O1)C1CCc2cc(F)ccc2O1 (stereo not shown) [Nebivolol] | highly selectively beta-1-blocking effects |
| CC(C)NCC(O)c1ccc(NS(C)(=O)=O)cc1 [Sotalol D-isomer, Sotalol] | no beta-blocking activity |
| CC(C)NCC(O)c1ccc(NS(C)(=O)=O)cc1 [Sotalol L-isomer, Sotalol] | has beta-blocking activity |
| CC(C)NC[C@@H](O)COc1cccc2ccccc12 [d-propranolol] | inactive |

tested on: alpha-blocking; settings: not given

| Compound | alpha-blocking activity |
| --- | --- |
| COc1ccccc1OCCNCC(O)COc1cccc2[nH]c3ccccc3c12 (single isomer, unassigned) [Carvedilol R(+) isomer, Carvedilol] | approximately equally alpha-blocking potency |
| COc1ccccc1OCCNCC(O)COc1cccc2[nH]c3ccccc3c12 (stereo not drawn) [Carvedilol S(−) isomer, Carvedilol] | approximately equally alpha-blocking potency |
| CC(CCc1ccccc1)NCC(O)c1ccc(O)c(C(N)=O)c1 [Labetalol (S, R) isomer, Labetalol] | potent alpha-blocker |
| S-Timolol | more a potent alpha-blocker than R-timolol |

tested on: not given; settings: dye clearance tests

| Compound | resolution of excretion in sweat [min] |
| --- | --- |
| carboxyethyl-hydroxychroman [CEHC] | 2 to 3 |

tested on: not given; settings: in vivo

| Compound | half-life |
| --- | --- |
| COc1ccc2c(c1)[C@]13CCCC[C@@H]1[C@H](C2)N(C)CC3 [DM, Dextromethorphan] | 2 to 4 h |
| CN1C(=O)CC[C@H]1c1cccnc1 [cotinine] | about 20 hours |
